Measurements: paper PMC9961652 (International Journal of Molecular Sciences, 2023)

How the values were obtained:
RhoA = tested on: RhoA; design: method as in PMID 22726684, PMID 22956131; conditions: cited from earlier work
RhoA, Rac1 and Cdc42 = tested on: RhoA, Rac1 and Cdc42; design: method as in PMID 22726684, PMID 27681226; conditions: cited from earlier work
washed human platelets = experiment: Wash-out reversibility of inhibition of collagen-induced platelet aggregation; type: cell-based
Experimental: The reversible inhibition of Rhosin in collagen-induced platelet aggregation was assessed with similar wash-out experiments, and this reversible nature of Rhosin makes it a valuable antiplatelet drug candidate (Supporting Information Figure S4A,B). After confirming the structures of the above six active analogs, similar wash-out experiments were performed to compare the reversible function of the active analogs with Rhosin reversibility.

[1] = Pharmacokinetic profile (unpublished data)

In the case of `N[C@H](Cc1c[nH]c2ccccc12)C(=O)N/N=C/c1ccc2nccnc2c1` [R-G04], the “affinity of binding to the Trp58 region of the RhoA surface” value (RhoA) is given as “micromolar affinity”, the “specificity of inhibition of Rho GTPase activation” value (RhoA, Rac1 and Cdc42) is given as “specifically inhibits the activation of RhoA but not that of Rac1 and Cdc42” and the “reversibility of inhibitory effect after wash-out” value (washed human platelets) is given as “reversible”. The pharmacokinetic profile [1] was “poor pharmacokinetic profile”.
